Data as given in ChEMBL document CHEMBL5053547, “Targeting of the FOXM1 Oncoprotein by E3 Ligase-Assisted Degradation” (J Med Chem, 2021).
Active and inactive are the calls of the source. The calls are words filed in the database; no cut-off is given here.

Tests used:
MDA-MB-231 [1] = assay: Antiproliferative activity against human MDA-MB-231 cells assessed as growth inhibition by MTT assay; type: functional
MDA-MB-231 [2] = assay: Reduction in beta-catenin nuclear accumulation in human MDA-MB-231 cells at 20 uM incubated for 16 hrs by Western blot analysis; type: functional, cell-based
MDA-MB-231 [3] = assay: Downregulation of Cyclin B expression in human MDA-MB-231 cells at 20 uM incubated for 16 hrs by Western blot analysis; type: functional, cell-based
MDA-MB-231 [4] = assay: Induction of cell cycle arrest in human MDA-MB-231 cells assessed as accumulation at G0/G1 phase at 20 uM incubated for 16 hrs by flow cytometry assay (reference value: 65.49%); type: functional
MDA-MB-231 [5] = assay: Downregulation of CDC25B expression in human MDA-MB-231 cells at 20 uM incubated for 16 hrs by Western blot analysis; type: functional, cell-based
MDA-MB-231 [6] = assay: Induction of cell cycle arrest in human MDA-MB-231 cells assessed as accumulation at G2/M phase at 20 uM incubated for 16 hrs by flow cytometry assay (reference value: 12.30%); type: functional
MDA-MB-231 [7] = assay: Induction of cell cycle arrest in human MDA-MB-231 cells assessed as accumulation at S phase at 20 uM incubated for 16 hrs by flow cytometry assay (reference value: 22.19%); type: functional
Forkhead box protein M1 = biological target: T1, Forkhead box protein M1 (Homo sapiens, UniProt Q08050); assay: Inhibition of recombinant FOXM1-DBD (unknown origin) binding to DNA measured after 30 mins by biochemical EMSA assay
T1 sequence (Q08050 whole entry): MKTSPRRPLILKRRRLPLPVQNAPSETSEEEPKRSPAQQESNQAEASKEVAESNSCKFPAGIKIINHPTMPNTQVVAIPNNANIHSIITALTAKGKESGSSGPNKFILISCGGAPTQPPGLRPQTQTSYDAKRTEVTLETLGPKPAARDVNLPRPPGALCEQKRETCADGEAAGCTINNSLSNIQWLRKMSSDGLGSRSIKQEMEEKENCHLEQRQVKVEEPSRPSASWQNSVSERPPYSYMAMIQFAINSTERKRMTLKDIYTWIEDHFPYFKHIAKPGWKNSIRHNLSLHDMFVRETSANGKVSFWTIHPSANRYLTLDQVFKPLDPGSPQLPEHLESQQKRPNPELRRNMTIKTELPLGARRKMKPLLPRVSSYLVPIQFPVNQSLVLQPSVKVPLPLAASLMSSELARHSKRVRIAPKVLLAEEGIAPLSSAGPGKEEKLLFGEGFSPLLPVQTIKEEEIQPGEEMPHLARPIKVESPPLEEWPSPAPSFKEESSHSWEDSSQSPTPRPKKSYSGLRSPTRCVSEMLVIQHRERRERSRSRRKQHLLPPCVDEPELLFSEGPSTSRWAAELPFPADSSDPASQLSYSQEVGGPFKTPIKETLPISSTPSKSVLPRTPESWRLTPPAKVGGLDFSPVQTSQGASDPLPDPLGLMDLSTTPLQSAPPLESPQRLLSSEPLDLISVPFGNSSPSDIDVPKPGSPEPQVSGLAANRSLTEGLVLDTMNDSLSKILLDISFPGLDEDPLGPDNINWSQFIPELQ

MDA-MB-231 [8] = assay: In vivo antitumor activity against human MDA-MB-231 cells xenografted in mouse assessed as tumor growth inhibition at 10 mg/kg/day administered through tail vain for 12 consecutive days; type: functional; conditions: route iv, read-out: TGI
MDA-MB-231 [9] = assay: Antitumor activity against human MDA-MB-231 cells xenografted in mouse assessed as tumor shrinkage at 10 mg/kg/day administered through tail vain for 12 consecutive days by H and E staining based histological analysis; type: functional, organism-based; conditions: route iv
MDA-MB-231 [10] = assay: Antitumor activity against human MDA-MB-231 cells xenografted in mouse assessed as […] by measuring Ki67 labelling at 10 mg/kg/day administered through tail vain for 12 consecutive days by immunohistochemical analysis; type: functional, organism-based; conditions: route iv
MDA-MB-231 [11] = assay: Reduction in FOXM1 expression in mouse xenografted with human MDA-MB-231 cells at 10 mg/kg/day administered through tail vain for 12 consecutive days by Western blot analysis; type: functional, organism-based; conditions: route iv
MDA-MB-231 [12] = assay: Anti-invasive activity against human MDA-MB-231 cells assessed as decrease in Vimentin gene expression incubated for 16 hrs by qRT-PCR analysis; type: functional, cell-based; conditions: dose 10-20 µM
MCF-10A = assay: Cytotoxicity against human MCF-10A cells assessed as cell viability measured upto 30 uM; type: cell-based
MDA-MB-231 [13] = assay: Anti-invasive activity against human MDA-MB-231 cells assessed as reduction migration incubated by transwell assay; type: functional, cell-based; conditions: dose 10-20 µM
MDA-MB-231 [14] = assay: Anti-invasive activity against human MDA-MB-231 cells assessed as decrease in MMP2 gene expression incubated for 16 hrs by qRT-PCR analysis; type: functional, cell-based; conditions: dose 10-20 µM
MDA-MB-231 [15] = assay: Anti-invasive activity against human MDA-MB-231 cells assessed as reduction invasion incubated by transwell assay; type: functional, cell-based; conditions: dose 10-20 µM
[16] = Stability in human plasma assessed as half life by LC/MS analysis; type: ADME, cell-free
MCF7 = assay: Antiproliferative activity against human MCF7 cells assessed as cell viability measured at 10 uM; type: functional, cell-based
MDA-MB-231 [17] = assay: Anti-invasive activity against human MDA-MB-231 cells assessed as increase in E-cadherin mRNA expression incubated for 16 hrs by qRT-PCR analysis; type: functional, cell-based; conditions: dose 10-20 µM
MDA-MB-231 [18] = assay: Anti-invasive activity against human MDA-MB-231 cells assessed as decrease in Snail gene expression incubated for 16 hrs by qRT-PCR analysis; type: functional, cell-based; conditions: dose 10-20 µM
[19] = Stability in mouse plasma assessed as half life by LC/MS analysis; type: ADME, cell-free
[20] = Stability in rat plasma assessed as half life by LC/MS analysis; type: ADME, cell-free
MDA-MB-231 [21] = assay: Anti-invasive activity against human MDA-MB-231 cells assessed as decrease in Slug gene expression incubated for 16 hrs by qRT-PCR analysis; type: functional, cell-based; conditions: dose 10-20 µM
MDA-MB-231 [22] = assay: Antineoplastic effect in human MDA-MB-231 cells xenografted in mouse assessed as reduction in tumor volume at 10 mg/kg/day administered through tail vain for 12 consecutive days; type: functional, organism-based; conditions: route iv
Mus musculus = assay: Toxicity in mouse xenografted with human MDA-MB-231 cells assessed as change in body weight at 10 mg/kg/day administered through tail vain for 12 consecutive days; type: organism-based; conditions: in vivo, iv

For `Nc1c(C(=O)Nc2ccc(F)cc2)sc2nc(-c3ccc(OCC(=O)NCCCNC(=O)COc4cccc5c4C(=O)N(C4CCC(=O)NC4=O)C5=O)cc3)cc(C(F)(F)F)c12` (centres undefined), which GI50 (MDA-MB-231 [1]) is on record?
Its GI50 is 17.4 µM.

For `CN1C(=O)CCC(N2C(=O)c3cccc(OCC(=O)NCCCOCCOCCOCCCNC(=O)COc4ccc(-c5cc(C(F)(F)F)c6c(N)c(C(=O)Nc7ccc(F)cc7)sc6n5)cc4)c3C2=O)C1=O` (centres undefined), which Activity (MDA-MB-231 [2]) is on record?
The Activity was “inactive”.

And the Activity (MDA-MB-231 [3])?
The Activity was “inactive”.

What about the Activity (MDA-MB-231 [4]) of the same molecule?
The Activity was 57.44%.

And the Activity (MDA-MB-231 [5])?
Its Activity is “inactive”.

And the Activity (MDA-MB-231 [6])?
The Activity was 18.2%.

And the Activity (MDA-MB-231 [7])?
The Activity was 24.35%.

Which GI50 (MDA-MB-231 [1]) does the source give for `Nc1c(C(=O)Nc2ccc(F)cc2)sc2nc(-c3ccc(OCC(=O)NCCCOCCOCCOCCCNc4cccc5c4C(=O)N(C4CCC(=O)NC4=O)C5=O)cc3)cc(C(F)(F)F)c12` (centres undefined) here?
Its GI50 is > 50 µM.

For `Nc1c(C(=O)Nc2ccc(F)cc2)sc2nc(-c3ccc(OCC(=O)NCCOCCOCCNC(=O)COc4cccc5c4C(=O)N(C4CCC(=O)NC4=O)C5=O)cc3)cc(C(F)(F)F)c12` (centres undefined), which GI50 (MDA-MB-231 [1]) is on record?
The GI50 was 19.5 µM.

With `Nc1c(C(=O)Nc2ccc(F)cc2)sc2nc(-c3ccc(OCC(=O)NCCCNc4cccc5c4C(=O)N(C4CCC(=O)NC4=O)C5=O)cc3)cc(C(F)(F)F)c12` (centres undefined) as the molecule, how does the GI50 (MDA-MB-231 [1]) read?
Its GI50 is 45.4 µM.

Which Activity (MDA-MB-231 [2]) does the source give for `Nc1c(C(=O)Nc2ccc(F)cc2)sc2nc(-c3cccs3)cc(C(F)(F)F)c12` here?
The Activity was “inactive”.

What about the IC50 (Forkhead box protein M1) of the same molecule?
Its IC50 is 28.4 µM.

And the Activity (MDA-MB-231 [4])?
Its Activity is 57.52%.

And the inhibition in vivo at 10 mg/kg/day (MDA-MB-231 [8])?
The inhibition in vivo at 10 mg/kg/day was 47.8%.

And the Activity (MDA-MB-231 [9])?
Its Activity is “Active”.

And the Activity (MDA-MB-231 [10])?
Its Activity is “Active”.

And the Activity (MDA-MB-231 [11])?
The Activity was “Active”.

And the Activity (MDA-MB-231 [6])?
The Activity was 16.32%.

And the Activity (MDA-MB-231 [7])?
The Activity was 16.17%.

And the GI50 (MDA-MB-231 [1])?
The GI50 was 25.6 µM.

With `Nc1c(C(=O)Nc2ccc(F)cc2)sc2nc(-c3ccc(OCC(=O)NCCCCCCCCNC(=O)COc4cccc5c4C(=O)N(C4CCC(=O)NC4=O)C5=O)cc3)cc(C(F)(F)F)c12` (centres undefined) as the molecule, how does the GI50 (MDA-MB-231 [1]) read?
Its GI50 is 38.6 µM.

With `COc1ccc(-c2cc(C(F)(F)F)c3c(N)c(C(=O)Nc4ccc(F)cc4)sc3n2)cc1` as the molecule, how does the GI50 (MDA-MB-231 [1]) read?
Its GI50 is 27.3 µM.

Which GI50 (MDA-MB-231 [1]) does the source give for `Nc1c(C(=O)Nc2ccc(F)cc2)sc2nc(-c3ccc(OCC(=O)NCCOCCOCCNc4cccc5c4C(=O)N(C4CCC(=O)NC4=O)C5=O)cc3)cc(C(F)(F)F)c12` (centres undefined) here?
The GI50 was > 50 µM.

For `Nc1c(C(=O)Nc2ccc(F)cc2)sc2nc(-c3ccc(OCC(=O)NCCCCCCCCNc4cccc5c4C(=O)N(C4CCC(=O)NC4=O)C5=O)cc3)cc(C(F)(F)F)c12` (centres undefined), which GI50 (MDA-MB-231 [1]) is on record?
The GI50 was > 50 µM.

With `Nc1c(C(=O)Nc2ccc(F)cc2)sc2nc(-c3ccc(OCC(=O)NCCCOCCOCCOCCCNC(=O)COc4cccc5c4C(=O)N(C4CCC(=O)NC4=O)C5=O)cc3)cc(C(F)(F)F)c12` (centres undefined) as the molecule, how does the Activity (MDA-MB-231 [12]) read?
Its Activity is “Dose-dependent effect”.

What about the Activity (MCF-10A) of the same molecule?
Its Activity is “Non-Toxic”.

What about the Activity (MDA-MB-231 [13]) of the same molecule?
The Activity was “Dose-dependent effect”.

And the Activity (MDA-MB-231 [14])?
The Activity was “Dose-dependent effect”.

What about the Activity (MDA-MB-231 [15]) of the same molecule?
Its Activity is “Dose-dependent effect”.

And the half-life [16]?
The half-life was 1.74 h.

What about the Activity (MCF7) of the same molecule?
The Activity was “Active”.

What about the Activity (MDA-MB-231 [2]) of the same molecule?
The Activity was “Active”.

And the Activity (MDA-MB-231 [3])?
The Activity was “Active”.

And the Activity (MDA-MB-231 [17])?
Its Activity is “Dose-dependent effect”.

And the Activity (MDA-MB-231 [4])?
Its Activity is 57.92%.

What about the Activity (MDA-MB-231 [18]) of the same molecule?
The Activity was “Dose-dependent effect”.

And the half-life [19]?
Its half-life is > 2 h.

What about the inhibition in vivo at 10 mg/kg/day (MDA-MB-231 [8]) of the same molecule?
The inhibition in vivo at 10 mg/kg/day was 78.2%.

And the Activity (MDA-MB-231 [9])?
The Activity was “Active”.

And the Activity (MDA-MB-231 [10])?
Its Activity is “Active”.

And the Activity (MDA-MB-231 [5])?
Its Activity is “Active”.

What about the half-life [20] of the same molecule?
Its half-life is 0.588 h.

And the Activity (MDA-MB-231 [21])?
Its Activity is “Dose-dependent effect”.

What about the Activity (MDA-MB-231 [22]) of the same molecule?
The Activity was “Active”.

What about the Activity (Mus musculus) of the same molecule?
The Activity was “Non-Toxic”.

What about the Activity (MDA-MB-231 [11]) of the same molecule?
Its Activity is “Active”.

And the Activity (MDA-MB-231 [6])?
The Activity was 20%.

And the Activity (MDA-MB-231 [7])?
Its Activity is 21.75%.

And the GI50 (MDA-MB-231 [1])?
Its GI50 is 16.2 µM.
